# System: eyelash growth
# Assay: Randomized double blind clinical trial of eyelash growth, daily topical application to root of upper eyelashes for 4 weeks
# Assay type: in vivo, human
# Procedure: These solutions were each applied daily to the roots of the upper right and left eyelashes of the patients in a quantity of approximately 0.0164 ml. Patients applied the eyelash product daily for 4 weeks on the root of the upper eyelashes only since some of the solution used may ultimately be deposited on the lower lash interfering with the studies' parameters. Methods: 34 patients were randomly assigned to one of three different treatment groups based on a standard treatment of the upper right lash and different treatments of the upper left eye lash with varying concentrations of the active product and a placebo. Age range of the patients was 20-56; 33 female, 1 male. Three different treatment Groups were constructed based on RIGHT EYE lash treatment/LEFT EYE lash treatment and defined as Groups A/B, A/D and A/C). All patients used Solution A on the right eye lash which is the “Control Group”, with Solutions B, D, and C used on the left eye lash of these same patients. Group A/B (14 patients) used Solution A on the upper right lash and Solution B on the upper left lash. Group A/D (9 patients) used Solution A on the upper right lash and Solution D on the upper left lash. Group A/C (11 patients) used Solution A on the upper right lash and the placebo, Solution C, on the upper left lash. After four (4) weeks upper RIGHT eyelash measurement were made for all 34 randomized patients. The upper LEFT eyelash measurement were made for the 14 patients using Solution B, for the 9 patients using Solution D and the 11 patients using Solution C (the placebo). Eyelash measurements for both the upper right and left eyelashes were taken in the medial, middle and lateral locations on both upper and lower eyelids using micocalipers and measured to 0.1 mm. The mean of the six measurements were then used to calculate the eyelash length for each eye. Measurements were taken at the initiation of the study to use as standard base. The technicians performing the measurements were blinded to the patient group assignment. A paired two-tailed Student's t-Test was used for statistical analysis. All patients enrolled into the study underwent a standard informed consent procedure.
smiles,measurement,setting,value
"CCNC(=O)CCC/C=C\C[C@@H]1[C@@H](/C=C/[C@@H](O)COc2ccccc2)[C@H](O)C[C@@H]1O [active agent, (z)-7-((1R,2R,3R,5S)-3,5-dihydroxy-2-((R,E)-3-hydroxy-4-phenoxybut-1-enyl)cyclopentyl)-N-ethylhept-5-enamide]",increase lash growth relative to placebo (growth with active / growth with placebo ×100),"4 weeks of daily use, placebo Solution C growth 0.63 mm",268.25%
same,patients subjectively reporting an increase in the thickness or fullness of their eyelashes,"9/34 patients, 4 weeks of daily use",26%
same,patients reporting mild or minimal irritation,"19/34 patients, typically resolved after several days of use",56%
same,patients reporting moderate irritation and discontinuing,"34 patients, daily topical use",One patient reported moderate irritation and discontinued the product

# From patent publication US20080269332A1, “EYELASH ENHANCEMENT COMPOSITION AND METHOD OF TREATMENT” (LA CANADA VENTRURES, INC., priority 2007, published 2008)
